Series [1] is described as follows: Fluorescent signal stability under continuous excitation (automatic exposure time, ASA 1600). Conditions: mouse brain section. The series is classed as physicochemical.
Method: Sections of paraffin-embedded mouse brain were deparaffinized and non-specific binding sites were blocked by treatment for thirty minutes in PBS-BB. Monoclonal antibody against microtubule associated protein-2 (Sigma) was diluted 1:100,000 in PBS-BB and incubated on the sections overnight at 4° C. Sections were then washed in PBS (three×five minutes each wash) and incubated at room temperature for one hour with HRP-conjugated donkey anti-mouse antibodies (Jackson Immunoresearch Laboratories; West Grove, Pa.) diluted 1:1000 in PBS-BB. […]
The fluorescein labeled section was viewed with a filter set having excitation/emission peaks at 490 nm/520 nm. […] Photomicrographs using standard two second exposures were taken at both time points to assess changes in fluorescence intensity over time. In addition, fluorescence intensity was semi-quantitated at both time points by recording the automatic exposure time required for photomicrographic documentation in a standard field using an ASA setting of 1600 and the MC100 camera system (Zeiss). Using this measure, short exposure times correlate with bright-fluorescence and long exposure times with dim fluorescence.
Series [2] has as its target Horseradish peroxidase (HRP) conjugated wheat germ agglutinin (Armoracia rusticana, UniProt P00433). Conditions: mouse intestine section. On the procedure:
Sections of paraffin-embedded mouse intestine were deparaffinized, and non-specific binding sites were blocked by treatment for thirty minutes in PBS-blocking buffer (PBS-BB) (0.1 M phosphate buffered saline, pH 7.2; 1.0% bovine serum albumin, 0.2% non-fat powdered milk; and 0.3% Triton X-100). Horseradish peroxidase (HRP) conjugated wheat germ agglutinin (Sigma; St. Louis, Mo.) at a concentration of 10 μg/ml in PBS-BB was incubated on the sections for one hour at room temperature. Sections were then washed in PBS (three×five minutes each wash) and Tris (0.1 M Tris, pH 8.5; three×three minutes each wash). N-(5-hydroxypentyl)-3-(p-hydroxyphenyl) propionamide (HHPA), 1 mg/ml in Tris containing 0.003% H2O2, was then added to the sections at room temperature for ten minutes. Sections were then washed in Tris (three×three minutes each wash) and mounted with Tris:Glycerol (1:1) and coverslipped. Sections were viewed with a Zeiss Axioskop microscope equipped with epifluorescence and filter sets with excitation/emission characteristics of 360 nm/>400 nm (blue-white fluorescence); 490 nm/520 nm (green fluorescence); and 550 nm/570 nm (red fluorescence). Sections were photographed with a Zeiss MC100 camera system.
Wheat germ agglutinin binds to N-acetylglucosamine residues present in abundance in intestinal mucin producing goblet cells. […] The microscopic field was then illuminated for one minute at 360 nm and reexamined as described above. […] Original magnifications 400×.

SMILES strings stand for the structures.

Chain of Horseradish peroxidase (HRP) conjugated wheat germ agglutinin (P00433 31-338 limits assumed): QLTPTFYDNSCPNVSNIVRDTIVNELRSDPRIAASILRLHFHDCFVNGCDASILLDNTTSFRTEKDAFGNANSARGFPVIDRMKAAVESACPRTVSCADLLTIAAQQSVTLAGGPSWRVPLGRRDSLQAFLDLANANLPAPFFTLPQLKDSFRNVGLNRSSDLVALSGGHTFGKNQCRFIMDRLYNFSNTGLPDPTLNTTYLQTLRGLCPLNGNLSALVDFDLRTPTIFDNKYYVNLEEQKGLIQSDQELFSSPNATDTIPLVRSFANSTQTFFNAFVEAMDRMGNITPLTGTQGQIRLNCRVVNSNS

Take `O=C(CCc1ccc(O)cc1)NCCCCCO` [HHPA, N-(5-hydroxypentyl)-3-(p-hydroxyphenyl) propionamide]: the “time required for a standard ASA 1600 exposure” value in series [1] (after fifteen minutes of continuous excitation) came out at 3.1 s; in series [1] (time zero, short exposure = bright fluorescence), 4.1 s. The “fluorescence signal, blue-white filter set” value in series [2] (360 nm excitation, before one minute illumination at 360 nm) is reported as “weak fluorescence signal”. Besides, the “fluorescent signal, all three filter sets (blue-white, green, red)” value in series [2] (after one minute illumination at 360 nm, localized to goblet cells) is “Intense fluorescent signals”. The “fluorescence signal, green or red filter sets” value in series [2] (before one minute illumination at 360 nm) is given as “almost no signal”.

The record behind these values is patent US6518036B1, “Method of permanent fluorescent assay” (Nen Life Science Products, Inc., priority 1999, dated 2003).
